From patent publication US8859541B2, “6-alkynylpyridines” (Boehringer Ingelheim International GmbH, priority 2012, dated 2014)

Assays:
[1] = target: T1, XIAP BIR3 (Homo sapiens, UniProt P98170); experiment: XIAP BIR3 binding assay (DELFIA), displacement of SMAC peptide; conditions: GST-fusion BIR3 domain (aa 241 to 356) 10 nM, SMAC peptide 10 nM; activity of the (S)-isomers
T1 construct: covering amino acids 241 to 356; XIAP BIR3; made in house; host or cells: E. coli
Procedure, shortened: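 Each BIR3 domain (10 nM) incubated with biotinylated N-terminal SMAC peptide (10 nM) and compound for 1 h at room temp in Tris/NaCl buffer with BSA, DTT and Triton X-100. Captured on streptavidin plates; bound BIR3 detected by Eu-labelled anti-GST time-resolved fluorescence, giving IC50 values.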

[2] = target: T2, cIAP1 BIR3 (Homo sapiens, UniProt Q13490); experiment: cIAP1 BIR3 binding assay (DELFIA), displacement of SMAC peptide; conditions: GST-fusion BIR3 domain (aa 256 to 363) 10 nM, SMAC peptide 10 nM; activity of the (S)-isomers
T2 construct: covering amino acids 256 to 363; cIAP1 BIR3; made in house; host or cells: E. coli
T2 sequence (Q13490 256-363): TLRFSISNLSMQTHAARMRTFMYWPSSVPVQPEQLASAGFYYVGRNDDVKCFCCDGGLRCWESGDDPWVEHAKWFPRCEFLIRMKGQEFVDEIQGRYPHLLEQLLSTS
Protocol: Biological Methods XIAP BIR3 and cIAP1 BIR3 Binding Assays (DELFIA)
Peptide […]-Lys(Biotin), representing the N-terminus of mature human SMAC (SMAC peptide), was used as interaction partner in the protein-peptide interaction assay.
BIR3 domains (10 nM) were incubated with SMAC peptide (10 nM) in Assay Buffer (50 mM Tris, 120 mM NaCl, 0.1% BSA, 1 mM DTT, 0.05% TritonX100) for one hour at room temperature in the presence of inhibitiory compounds. The assay mixture was transferred to a strepatvidin coated plate and incubated for one hour at room temperature to allow binding of the biotinylated peptide and associated BIR3 domains to the plate. After several washing steps Eu labeled anti-GST antibody (e.g. Perkin Elmer DELFIA Eu-N1-antiGST AD0250) was added to detect BIR3 domain-SMAC peptide interactions according to Perkin Elmer's instructions. […] Time resolved Europium fluoresecence was measured in a Wallac Victor using Standard assay settings.
DELFIA assay results were plotted against compound concentrations and Software GraphPad Prizm was used to calculate half maximal inhibitory concentrations (IC50 values).

T1 sequence (P98170 241-356): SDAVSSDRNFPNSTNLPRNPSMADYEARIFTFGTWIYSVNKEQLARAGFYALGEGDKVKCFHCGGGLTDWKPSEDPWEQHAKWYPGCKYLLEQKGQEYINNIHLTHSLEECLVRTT

| SMILES | IC50 [1] [nM] | IC50 [2] [nM] |
| --- | --- | --- |
| CNC(C)C(=O)Nc1ccc(-c2c(C)nc3ccccn23)c(C#Cc2nn(C)c3ncccc23)n1 (stereo not drawn) [Example 58, 2-(methylamino)-N-[5-(2-methylimidazo[1,2-a]pyridin-3-yl)-6-[2-(1-methylpyrazolo[3,4-b]pyridin-3-yl)ethynyl]pyridin-2-yl]propanamide] | 224 | 5 |
| CNC(C)C(=O)Nc1ccc(-c2c(C)nc3ccccn23)c(C#Cc2cnc3ccccn23)n1 (stereo not drawn) [Example 60, N-[6-(2-imidazo[1,2-a]pyridin-3-ylethynyl)-5-(2-methyl-imidazo[1,2-a]pyridin-3-yl)-pyridin-2-yl]-2-(methylamino)-propanamide] | 184 | 2 |
| CNC(C)C(=O)Nc1ccc(-c2c(C)nc3ccccn23)c(C#Cc2nn(C)c3ccccc23)n1 (stereo not drawn) [Example 61, 2-(methylamino)-N-[5-(2-methylimidazo[1,2-a]pyridin-3-yl)-6-[2-(1-methylindazol-3-yl)-ethynyl]pyridin-2-yl]propan-amide] | 187 | 5 |
| CNC(C)C(=O)Nc1ccc(-c2c(C)nc3ccccn23)c(C#Cc2ccc(C(N)=O)cc2)n1 (stereo not drawn) [Example 63, 4-[2-[6-[[2-(methylamino)-propanoyl]amino]-3-(2-methyl-imidazo[1,2-a]pyridin-3-yl)-pyridin-2-yl]ethynyl]benzamide] | 70 | 1 |
| CNC(C)C(=O)Nc1ccc(-c2c(-c3ccncc3)nc3cc(C)ccn23)c(C#Cc2ccc3nc(C)ccc3c2)n1 (stereo not drawn) [Example 64, 2-(methylamino)-N-[5-(7-methyl-2-pyridin-4-ylimidazo[1,2-a]pyridin-3-yl)-6-[2-(2-methylquinolin-6-yl)-ethynyl]pyridin-2-yl]propan-amide] | 152 | 1 |
| CNC(C)C(=O)Nc1ccc(-c2c(C)nc3ccccn23)c(C#Cc2ccc3c(c2)CC(=O)N3C)n1 (stereo not drawn) [Example 66, 2-(methylamino)-N-[5-(2-methyliniidazo[1,2-a]pyridin-3-yl)-6-[2-(1-methyl-2-oxo-3H-indol-5-yl)ethynyl]pyridin-2-yl]-propanamide] | 252 | 1 |
| CNC(C)C(=O)Nc1ccc(-c2c(C)nc3ccccn23)c(C#Cc2ccc3c(c2)CCO3)n1 (stereo not drawn) [Example 69, N-[6-[2-(2,3-dihydro-1-benzofuran-5-yl)ethynyl]-5-(2-methylimidazo[1,2-a]pyridin-3-yl)pyridin-2-yl]-2-(methyl-amino)propanamide] | 110 | 2 |
| CNC(C)C(=O)Nc1ccc(-c2c(C)nc3ccccn23)c(C#Cc2cc3ccccc3o2)n1 (stereo not drawn) [Example 70, N-[6-[2-(1-benzofuran-2-yl)-ethynyl]-5-(2-methyl-imidazo[1,2-a]pyridin-3-yl)-pyridin-2-yl]-2-(methylamino)-propanamide] | 66 | 1 |
| CNC(C)C(=O)Nc1ccc(-c2c(C)nc3ccccn23)c(C#Cc2ccc3c(c2)oc(=O)n3C)n1 (stereo not drawn) [Example 71, 2-(methylamino)-N-[5-(2-methylimidazo[1,2-a]pyridin-3-yl)-6-[2-(3-methyl-2-oxo-1,3-benzoxazol-6-yl)ethynyl]-pyridin-2-yl]propanamide] | 300 | 1 |
| CNC(C)C(=O)Nc1ccc(-c2c(C)nc3ccccn23)c(C#Cc2ccc3nn(C)cc3c2)n1 (stereo not drawn) [Example 72, 2-(methylamino)-N-[5-(2-methylimidazo[1,2-a]pyridin-3-yl)-6-[2-(2-methylindazol-5-yl)-ethynyl]pyridin-2-yl]propan-amide] | 145 | 1 |
| CNC(C)C(=O)Nc1ccc(-c2c(C)nc3ccccn23)c(C#Cc2ccc3oc(=O)n(C)c3c2)n1 (stereo not drawn) [Example 74, 2-(methylamino)-N-[5-(2-methylimidazo[1,2-a]pyridin-3-yl)-6-[2-(3-methyl-2-oxo-1,3-benzoxazol-5-yl)ethynyl]-pyridin-2-yl]propanamide] | 175 | 1 |
| CNC(C)C(=O)Nc1ccc(-c2c(C)nc(N(C)C)nc2C)c(C#Cc2ccc3c(ccc(=O)n3C)c2)n1 (stereo not drawn) [Example 75, N-[5-[2-(dimethylamino)-4,6-dimethylpyrimidin-5-yl]-6-[2-(1-methyl-2-oxoquinolin-6-yl)-ethynyl]pyridin-2-yl]-2-(methyl-amino)propanamide] | 1670 | 1 |
| CNC(C)C(=O)Nc1ccc(-c2c(C)nc3ccccn23)c(C#Cc2ccc3c(OC)nccc3c2)n1 (stereo not drawn) [Example 77, N-[6-[2-(1-methoxyisoquinolin-6-yl)ethynyl]-5-(2-methyl-imidazo[1,2-a]pyridin-3-yl)-pyridin-2-yl]-2-(methylamino)-propanamide] | 196 | 1 |
| CNC(C)C(=O)Nc1ccc(-c2c(-c3ccncc3)nc3cc(C)ccn23)c(C#Cc2ccc(F)c3ncccc23)n1 (stereo not drawn) [Example 78, N-[6-[2-(8-fluoroquinolin-5-yl)-ethynyl]-5-(7-methyl-2-pyridin-4-ylimidazo[1,2-a]pyridin-3-yl)-pyridin-2-yl]-2-(methylamino)-propanamide] | 47 | 2 |
| CNC(C)C(=O)Nc1ccc(-c2c(C)nc(N3CCCC3)nc2C)c(C#Cc2ccc3c(ccc(=O)n3C)c2)n1 (stereo not drawn) [Example 79, N-[5-(4,6-dimethyl-2-pyrrolidin-1-ylpyrimidin-5-yl)-6-[2-(1-methyl-2-oxoquinolin-6-yl)-ethynyl]pyridin-2-yl]-2-(methyl-amino)propanamide] | 2400 | 1 |
| CNC(C)C(=O)Nc1ccc(-c2c(C)nc(N3CCCC3)nc2C)c(C#Cc2ccc3ncccc3c2)n1 (stereo not drawn) [Example 80, N-[5-(4,6-dimethyl-2-pyrrolidin-1-ylpyrimidin-5-yl)-6-(2-quinolin-6-ylethynyl)pyridin-2-yl]-2-(methylamino)propan-amide] | 1310 | 1 |
| CNC(C)C(=O)Nc1ccc(-c2c(-c3ccncc3)nc3cc(C)ccn23)c(C#Cc2ccc3c(ccc(=O)n3C)c2)n1 (stereo not drawn) [Example 81, 2-(methylamino)-N-[6-[2-(1-methyl-2-oxoquinolin-6-yl)-ethynyl]-5-(7-methyl-2-pyridin-4-ylimidazo[1,2-a]pyridin-3-yl)-pyridin-2-yl]propanamide] | 253 | 1 |
| CNC(C)C(=O)Nc1ccc(-c2c(-c3ccncc3)nc3cc(C)ccn23)c(C#Cc2ccc(-c3ccon3)cc2)n1 (stereo not drawn) [Example 82, 2-(methylamino)-N-[5-(7-methyl-2-pyridin-4-ylimidazo[1,2-a]pyridin-3-yl)-6-[2-[4-(1,2-oxazol-3-yl)phenyl]-ethynyl]pyridin-2-yl]propan-amide] | 61 | 1 |
| CNC(C)C(=O)Nc1ccc(-c2c(C)nc(N3CCOCC3)nc2C)c(C#Cc2ccc3c(c2)CC(=O)N3C)n1 (stereo not drawn) [Example 87, N-[5-(4,6-dimethyl-2-morpholin-4-ylpyrimidin-5-yl)-6-[2-(1-methyl-2-oxo-3H-indol-5-yl)ethynyl]pyridin-2-yl]-2-(methylamino)propanamide] | 1450 | 1 |
| CNC(C)C(=O)Nc1ccc(-c2c(C)nc3ccccn23)c(C#Cc2ccc(-n3ccnc3)cc2)n1 (stereo not drawn) [Example 88, N-[6-[2-(4-imidazol-1-ylphenyl)ethynyl]-5-(2-methyl-imidazo[1,2-a]pyridin-3-yl)-pyridin-2-yl]-2-(methylamino)-propanamide] | 207 | 1 |
| CNC(C)C(=O)Nc1ccc(-c2c(C)nc3ccccn23)c(C#Cc2cccc3ncccc23)n1 (stereo not drawn) [Example 89, 2-(methylamino)-N-[5-(2-methylimidazo[1,2-a]pyridin-3-yl)-6-(2-quinolin-5-ylethynyl)-pyridin-2-yl]propanamide] | 92 | 2 |
| CNC(C)C(=O)Nc1ccc(-c2c(C)nc3ccccn23)c(C#Cc2ccc(-n3cccn3)cc2)n1 (stereo not drawn) [Example 90, 2-(methylamino)-N-[5-(2-methylimidazo[1,2-a]pyridin-3-yl)-6-[2-(4-pyrazol-1-ylphenyl)-ethynyl]pyridin-2-yl]propan-amide] | 166 | 1 |
| CNC(C)C(=O)Nc1ccc(-c2c(C)nc3ccccn23)c(C#Cc2cc(C)nc3c(F)cccc23)n1 (stereo not drawn) [Example 92, N-[6-[2-(8-fluoro-2-methylquinolin-4-yl)ethynyl]-5-(2-methylimidazo[1,2-a]pyridin-3-yl)pyridin-2-yl]-2-(methyl-amino)propanamide] | 172 | 1 |
| CNC(C)C(=O)Nc1ccc(-c2c(C)nc3ccccn23)c(C#Cc2ccnc3c(F)cccc23)n1 (stereo not drawn) [Example 93, N-[6-[2-(8-fluoroquinolin-4-yl)-ethynyl]-5-(2-methyl-imidazo[1,2-a]pyridin-3-yl)-pyridin-2-yl]-2-(methylamino)-propanamide] | 198 | 1 |
